Measured values from patent US20040132780A1, “Method and compositions for treating migraines” (priority 2001, published 2004).

Experiment: pharmacokinetics of etoricoxib compared to traditional NSAIDs
Assay type: in vivo
Details: as compared to traditional NSAIDs such as naproxen

## Cc1ccc(-c2ncc(Cl)cc2-c2ccc(S(C)(=O)=O)cc2)cn1 [Etoricoxib, etoricoxib]
  half-life: longer
  time to maximum concentration: shorter
